Data on four molecules can be found in patent publication US20220177587A1, “METHODS AND USES OF VARIANT CD80 FUSION PROTEINS AND RELATED CONSTRUCTS” (Alpine Immune Sciences, Inc., priority 2018, published 2022).

Series [1] relates to human pan T cells. Put plainly: Anti-CD3 coimmobilization assay, IFN-gamma. The conditions noted are these: Table E33; culture supernatant, 3 days. In kind it is cell-based. As to the method: Costimulatory bioactivity of CD80 fusion variants was determined in anti-CD3 coimmobilization assays. 1 nM or 4 nM mouse anti-human CD3 (OKT3, Biolegends, USA) was diluted in PBS with 1 nM to 80 nM rCD80.Fc variant proteins. This mixture was added to tissue culture treated flat bottom 96-well plates (Corning, USA) overnight to facilitate adherence of the stimulatory proteins to the wells of the plate. The next day, unbound protein was washed off the plates and 100,000 purified human pan T cells (BenTech Bio, US) or human T cell clone BC3 (Astarte Biologics, USA) were added to each well in a final volume of 200 μl of Ex-Vivo 15 media (Lonza, Switzerland). Cells were cultured 3 days before harvesting culture supernatants and measuring human IFN-gamma levels with Duoset ELISA kit (R&D Systems, USA) as described above.

Series [2] concerns allogeneic CD4+ T cells. Put plainly: Mixed Lymphocyte Reaction (MLR), IFN-gamma. In kind it is cell-based, human. Conditions: Table E33; culture supernatant. As to the method: Soluble rCD80.Fc bioactivity was tested in a human Mixed Lymphocyte Reaction (MLR). Human primary dendritic cells (DC) were generated by culturing monocytes isolated from PBMC (BenTech Bio, USA) in vitro for 7 days with 500U/ml rIL-4 (R&D Systems, USA) and 250 U/ml rGM-CSF (R&D Systems, USA) in Ex-Vivo 15 media (Lonza, Switzerland). 10,000 matured DC and 100,000 purified allogeneic CD4+ T cells (BenTech Bio, USA) were co-cultured with variant CD80 Fc fusion proteins and controls in 96 well round bottom plates in 200 μl final volume of Ex-Vivo 15 media. On day 5, IFN-gamma secretion in culture supernatants was analyzed using the Human IFN-gamma Duoset ELISA kit (R&D Systems, USA). Optical density was measured by VMax ELISA Microplate Reader (Molecular Devices, USA) and quantitated against titrated rIFN-gamma standard included in the IFN-gamma Duo-set kit (R&D Systems, USA).

Series [3] has as its system huPD-L1 transduced MC38 tumor cells. Put plainly: In vitro cytotoxicity to huPD-L1 transduced MC38 tumor cells. In kind it is cell-based, mouse. The conditions noted are these: 100 nM or 10 nM; 72 hours; human pan T cells 1:5; FIG. 17. As to the method:
This Example describes the assessment of in vitro cytotoxicity of huPD-L1 transduced MC38 tumor cells. MC38 tumor cells, non-transduced or transduced with huPD-L1, were treated with Mitomycin-C and plated with human pan T cells labelled with CFSE at a 1:5 ratio. […] As a control, an exemplary anti-PD-1 antibody nivolumab or an Fc (inert) only control also were assessed. Cells were then harvested and stained with 7-AAD viability dye. After acquiring samples on a flow cytometer, the percentage of dead cells was calculated using Flowjo analysis by gating on 7-AAD+ cells in the CFSE− gate.

Series [4] concerns huPD-L1/MC38 cells. Put plainly: huPD-L1 MC38 tumor model, combination with oxaliplatin. In kind it is in vivo, mouse. The conditions noted are these: monotherapy. As to the method: To test the anti-tumor activity of the exemplary variant, it was evaluated alone or in combination with the platinum-based chemotherapeutic agent, oxaliplatin, in mice bearing human PD-L1-expressing MC38 tumors, which is a syngeneic mouse colon carcinoma solid tumor model.
The huPD-L1 MC38 cell line was generated by transducing parental MC38 cells with huPD-L1 using viral transduction. Eight-week old female C57/BL6NJ mice (The Jackson Laboratories, Sacramento, Calif.) were implanted subcutaneously with 0.5×10^6 huPD-L1/MC38 cells. For injections, 0.1 mL of cells (0.5×10^6 cells) were injected subcutaneously (SC) in the right mid-flank region.
On day 1, mice were randomized into four groups of 10 mice each, with all mice in each group having about equal mean tumor volumes (˜108 mm^3). Tumors were measured with electronic calipers two-dimensionally twice weekly, beginning on day 7 post-tumor cell implant (referred to as “day 1”). Tumor volume was calculated as length×(width×2)×0.5, with the length being the longer of the two measurements.
As shown, 30% of the mice in the monotherapy group were tumor free by the end of the study.

Series [5] has as its system primary human pan T cells. Put plainly: Cytokine production following PD-L1-dependent costimulation. Conditions: mitomycin-c treated K562/OKT3/PDL1 aAPC; FIG. 6. In kind it is cell-based.
Series [6] deals with MC38 hPD-L1 tumor cells. Put plainly: MC38 hPD-L1 tumor model in C57BL/6 mice. In kind it is in vivo, mouse. As for the experimental part:
Mouse MC38 tumor cells were stably transfected with human PD-L1 (MC38 hPD-L1) and implanted subcutaneously into C57BU6 mice. […] Tumor volume was tracked over time.
70 female C57CL/6 mice, containing similar tumor volumes of approximately 50-51 mm^3, following implantation of MC38 hPD-L1 tumor cells, were staged and divided into 5 treatment groups containing 14 mice each. […] Tumor volumes were measured on days 7, 10, and 12. On day 13, 5 animals were sacrificed for analysis as described in the sections below. Tumor measurements resumed for the remaining 9 mice for each group on days 17, 20 and 27. On days 26, 28, and 31, the animals in Group 1 (Fc isotype control) received an intratumoral injection of 100 μg E35D/M47L CD80-IgV-Fc.
95 female C57BU6 mice were implanted with MC38 hPD-L1 tumor cells. The tumors were staged on Day 7, and 77 mice with similar tumor volumes of approximately 60 mm^3 were divided into 7 treatment groups containing 11 mice each.
On day 49, tumor-free mice, from Groups 3, 4, 6, and 7, and 2 naïve C57CL/6 mice were re-challenged with an additional injection of hPD-L1 MC38 cells. Tumor volumes were measured on days 56, 59, and 63. The results are depicted in FIG. 13. […] At day 59, 8/8 mice from Group 3, 1/2 mice from Group 4, 1/1 mouse from Group 6, and 2/2 mice from Group 7 were tumor-free, and by day 63, all mice in Group 3, Group 4, Group 6, and Group 7 were tumor-free.
75 animals were staged into 3 treatment groups 7 days after implantation with hPD-L1 MC38 tumor cells. […] Tumor volumes were measured every 3-4 days, from Day 11 until Day 35. 3 days after the 1st dose, 2nd dose and 3rd dose, 4 mice from each group were sacrificed for tumor and LN analyses, leaving 13 mice for tumor volume measurements throughout the study period.

[7] abbreviates: 3 injections of 100 μg on Days 8, 10 and 12.
The mark [8] stands for this setting: re-challenged on day 49 with hPD-L1 MC38 cells.

In the case of WTCD80, the “Coimmobilization with anti-CD3 IFN-gamma” value in series [1] was found to be 509 pg/mL. For the same molecule, the “MLR IFN-gamma levels” value in series [2] was 19211 pg/mL.
Regarding nivolumab [reference compound], in series [3], the “cytotoxicity (percentage of dead 7-AAD+ tumor cells)” value is given as “cytotoxic activity was not observed”.
Turning to `O=C1[O][Pt]2([NH][C@@H]3CCCC[C@H]3[NH]2)[O]C1=O` [oxaliplatin, reference compound], in series [4], the antitumor activity result is “only modestly effective as monotherapy” and the “tumor free mice by the end of the study” value is “no tumor-free mice”.
As for durvalumab [reference compound], the “IL-2 secretion in culture supernatants” value in series [5] is “IL-2 production was not observed”. For the same molecule, the “mice with no detectable tumors (tumor-free) upon completion of the study” value in series [6] (100 μg on days 7, 9 and 11, 11 mice per group) stood at 2 mice. For the same molecule, in series [6] (setting [7]), the “tumor-free mice at day 35” value was 3/13 and the “tumor-free mice on Day 18” value is recorded as 3/13. Besides, in series [6] (setting [8]), the “tumor-free mice after re-challenge, day 59” value is reported as 2/2 and the “tumor-free mice after re-challenge, day 63” value is recorded as “tumor-free”.
